# From patent US8034810B2, “Arylsulfonamido-substituted hydroxamic acid derivatives” (Novartis AG, priority 1999, dated 2011)
# Where a name gives a salt, the structure may show the parent alone.
# Target: T1, MMP9 (Homo sapiens, UniProt P14780)
# T1 construct: endogenous in cells; host or cells: THP1 human monocytic leukemia cells, TPA-stimulated; enzyme purified from culture medium
# Experiment: Assay of MMP9, fluorogenic peptide substrate
# Format: biochemical
# Details: activated MMP9 from THP1 cells, 0.5 nM; substrate 25 μM
# Procedure: MMP9 is prepared form the culture medium of THP1 human monocytic leukemia cells treated with TPA. THP1 cells are maintained in a culture of DMEM/F-12 with 10% FCS and stimulated to produce pro-MMP9 with TPA (1 nM) in serum-free medium for 48 h. All purification procedures are carried out at 4° C. The 1 liters of culture medium is concentrated to 100 ml by Centricon (Amicon) and applied to a column (1×8 cm) of gelatin-sepharose (Pharmacia) equilibrated with 50 mM Tris-Cl (pH=8.0), 300 mM NaCl. The fraction containing pro-MMP-9 is eluted with 10% DMSO in 50 mM Tris-Cl (pH=8.0), 300 mM NaCl, then dialyzed against 50 mM Tris-Cl (pH 7.5), 150 mM NaCl. The fraction is concentrated by Centricon and subjected to column chromatography of Sephadex G200 (2×20 cm) equilibrated with 50 mM Tris-Cl (pH=7.5) containing 150 mM NaCl. The purified Pro-MMP9 is stored at −80° C. as a stock and the necessary amount of pro-form is used for activation. Pro-MMP9 is activated with 1 mM aminophenyl mercury acetate (APMA, ICN Pharmaceuticals) in 50 mM Tris-Cl (pH=7.5) containing 150 mM NaCl, 10 mM CaCl2 and 0.05% Brij-35 (MMP Assay Buffer) for 18 h at 37° C., and the APMA is removed by extensive dialysis against MMP Assay Buffer. The activated MMP9 is stored frozen at −80° C. until use.
# The activated MMP-9 (82 kDa) is then used to screen compounds. A fluorogenic peptide, 2-N-methylaminobenzoic acid (Nma)-Gly-Pro-Gln-Gly-Leu-Ala-Gly-Gln-Lys-N^ε-(2,4-dinitrophenyl)(Dnp)-NH2 (Peptide Institute, Osaka, Japan) is used as the only substrate in all MMPs assay in this study at 25 μM. Stock solutions of the substrate are prepared in 100% DMSO at a concentration 1.0 mM. Assays are performed in MMP Assay Buffer. The reaction mixture is added in duplicate to appropriate wells of a 96 well microfluor plate and preincubated at 37° for 30 min. The reaction is started by the addition of 0.5 nM of activated MMP9. Stock solutions of each inhibitor are prepared by dissolving in 100% DMSO. Inhibitors are added into the assay mixture from the diluted solution with 100% DMSO prepared from the stock solutions. An equal volume of DMSO is added to controls. The final concentration of DMSO from inhibitor and substrate solutions is 5.0%. The increase of fluorescence is monitored at 460 nm with excitation at 355 nm. A time point on a linear part of the curve is chosen to determine the activity. The inhibition results are expressed as the inhibitor concentration that produce 50% inhibition (IC50) of the activity in the control reaction.
# T1 sequence (P14780 107-707 limits assumed): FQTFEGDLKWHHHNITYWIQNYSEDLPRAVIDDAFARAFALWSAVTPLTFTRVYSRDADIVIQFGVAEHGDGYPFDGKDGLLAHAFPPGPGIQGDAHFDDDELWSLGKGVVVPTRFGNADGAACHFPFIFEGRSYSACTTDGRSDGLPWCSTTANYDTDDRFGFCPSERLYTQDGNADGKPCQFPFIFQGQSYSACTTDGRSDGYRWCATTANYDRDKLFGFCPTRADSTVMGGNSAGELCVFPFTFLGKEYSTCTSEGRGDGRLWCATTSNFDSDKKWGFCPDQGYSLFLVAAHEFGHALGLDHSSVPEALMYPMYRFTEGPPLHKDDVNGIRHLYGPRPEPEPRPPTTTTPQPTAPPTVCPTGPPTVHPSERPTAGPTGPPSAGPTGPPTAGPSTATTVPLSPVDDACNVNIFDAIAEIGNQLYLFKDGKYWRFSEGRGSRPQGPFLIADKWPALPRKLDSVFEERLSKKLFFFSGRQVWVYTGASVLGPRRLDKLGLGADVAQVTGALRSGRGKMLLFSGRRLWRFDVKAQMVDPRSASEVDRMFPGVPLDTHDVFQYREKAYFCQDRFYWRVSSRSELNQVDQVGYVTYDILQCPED
row,Compound,IC50 [nM]
1,"2-[(Cyclopropylmethoxy-benzenesulfonyl)-(4-[1,2,4]triazol-1-yl-benzyl)-amino]-N-hydroxyacetamide-hydrochloride salt [Example 82b]",10.6
2,O=C(CN(Cc1ccc(-n2cncn2)cc1)S(=O)(=O)c1ccc(OCCC2CC2)cc1)NO [Example 82a],17
3,O=C(CN(Cc1ccc(-n2cncn2)cc1)S(=O)(=O)c1ccc(OCc2ccoc2)cc1)NO [Example 82c],7.4
4,"C=CCCOc1ccc(S(=O)(=O)N(CC(=O)NO)Cc2cccc(F)n2)cc1 [Example 83a, 2-([4-But-3-enyloxy-benzenesulfonyl]-(6-fluoro-pyridine-2-yl)methyl-amino)-N-hydroxyacetamide]",5.6
5,"C=CCCOc1ccc(S(=O)(=O)N(CC(=O)NO)Cc2ccc(N3CCCC3)cc2)cc1 [Example 84a, 2-[(4-But-3-enyloxy-benzenesulfonyl)-(4-(pyrrolidin-1-yl)-benzyl)-amino]-N-hydroxyacetamide-hydrochloride]",19.8
6,"C=CCCOc1ccc(S(=O)(=O)N(CC(=O)NO)Cc2ccc(N3CCOCC3)cc2)cc1 [Example 81, 2-[(4-But-3-enyloxy-benzenesulfonyl)-(4-morpholin-4-yl-benzyl)-amino]-N-hydroxy-acetamide-hydrochloride]",6.3

# The remaining lines, values ahead:
row,IC50 [nM],Compound
1,3.7,"C=CCCOc1ccc(S(=O)(=O)N(CC(=O)NO)Cc2ccc(-n3ccnc3)cc2)cc1 [Example 80, 2-[(4-But-3-enyloxy-benzenesulfonyl)-(4-imidazol-1-yl-benzyl)-amino]-N-hydroxy-acetamide-hydrochloride]"
2,0.2,"C=CCCOc1ccc(S(=O)(=O)N(CC(=O)NO)Cc2ccc(-n3cncn3)cc2)cc1 [Example 79, 2-[(4-but-3-enyloxy-benzenesulfonyl)-(4-[1,2,4]triazol-1-yl-benzyl)-amino]-N-hydroxy-acetamide-hydrochloride salt]"
3,1.2,"COc1ccc(CN(CC(=O)NO)S(=O)(=O)c2ccc(OCCCCl)cc2)cc1 [Example 68, 2-{[4-(3-chloro-propoxy)-benzenesulfonyl]-(4-methoxy-benzyl)amino}-N-hydroxy-acetamide]"
